Holding throughout (assay type): biochemical
Assay [1] has as its target human neutrophil collagenase (Homo sapiens, UniProt P22894). Briefly: Assay of human neutrophil collagenase inhibition activity. The following applies: human neutrophil collagenase 2 nM, H-150 buffer pH 7.4; read-out: Ki(app). The procedure: H-150 buffer, pH 7.4, was prepared by adding CaCl2 H2 O (1.47 grams), NaCl (8.77 grams) and N-[2-hydroxyethyl]piperazine-N'-[2-ethanesulfonic acid] (23.83 grams) to distilled and deionized water and then bringing the final volume of the solution to 1 liter.
A reaction mixture with a final volume of 2.0 mL was prepared from H-150 buffer, human neutrophil collagenase (Schnierer, et al., Blochem. Biophys. Res. Comm., 191:319 (1993); Knight et al., Federation of Europena Biochemical Societies 296:263 (1992)) (2 nM). Coumarin peptide substrate (4 μL of a 5 mM solution in dimethyl sulfoxide) was added to the reaction mixture. The rate of hydrolysis was determined for about 100-200 seconds by measuring the fluorescence of the reaction at ex328 nanometers and […] using a Hitachi F-2000 Fluorescence Spectrophotometer.
(§1) 2 μL of a 10 mM inhibitor stock solution (in dimethyl sulfoxide) is added and the reduction in the rate of hydrolysis is determined. Additional 2 μL aliquots of the stock inhibitor solution is added until a 30% to 70% inhibition is observed. Ki is calculated on the assumption of simple competitive inhibition and that the substrate concentration is much less than Km.

Another assay has as its target stromelysin (Homo sapiens, UniProt P08254). Briefly: Assay of stromelysin inhibition activity (fluorogenic coumarin peptide substrate). The note with it: trypsin-activated stromelysin 2 nM, H-150 buffer pH 7.4, room temperature; read-out: Ki(app). The procedure: Stromelysin was first activated with trypsin. This was done by preparing a reaction mixture in H-150 (H-150 consists of 10 mM CaCl2, 150 mM NaCl and 100 mM HEPES at pH 7.4) containing a final concentration of 25 μg/mL trypsin and 2.2 μM of stromelysin (Marcy et al., Biochemistry,30:6476 (1991); Koklitis et al., Biochem. J., 376:217 (1991). The reaction was incubated for 30 minutes at 37° C. and then quenched by adding trypsin inhibitor agarose to the reaction mixture at a 20 fold excess with respect to trypsin.
The reaction mixture was centrifuged at 14,000 rpm (16,000 ×g) for 30 minutes using an Eppendorf Centrifuge 5415C. The supernant, which contains activated stromelysin, was concentrated with a Centricon 10 (5000 g, 1 hour). A sample was analyzed by Bradford total protein assay and 12% SDS polyacrylamide gel electrophoresis.
All steps of the stromelysin inhibition assay were performed at room temperature. Assay solutions were prepared for each inhibitor tested. Activated stromelysin was added to a stirred covelte to a final concentration of 2 nM in 2 mL of H-150 buffer. 4 μL 5 mM coumarin peptide substrate was dissolved in DMSO and the initial rate of hydrolysis was measured for 100-200 seconds.
Substrate hydrolysis was assessed by fluorescence using a slit width of 10:10, excitation at 328 nm and emission at 393 nm. Ki was calculated based on the assumption of simple competitive inhibition and a substrate concentration much less than Km. 2 μL of 10 mM inhibitor in DMSO was added and the reduction in hydrolysis rate measured. The addition of 2 μL of inhibitor was continued until a 30-70% inhibition was observed.

The next assay addresses 92 kD gelatinase (Homo sapiens, UniProt P14780). Briefly: Assay of 92 KD gelatinase inhibition activity. The note with it: 92KD gelatinase 25 pM, H-150 buffer pH 7.4; read-out: Ki(app). The procedure:
H-150 buffer, pH 7.4, was prepared by CaCl2 H2 O (1.47 grams), NaCl (8.77 grams) and N-[2-hydroxyethyl]piperazine-N'-[2-ethanesulfonic acid](23.83 grams) to distilled and deionized water and then bring the final volume of the solution to 1 liter. A reaction mixture having a final volume of 500 μL was prepared with H-150 buffer, 200 μgrams of Pro-92KD gelatinase (Strongin et al., J. Biol. Chem., 268:14033 (1993); Goldberg, et al., J. Biol. Chem., 267:4583 (1992); Okada et al., J. Biol. Chem. 267:21712 (1992)), p-aminophenyl mercuric acetate (Sigma Chemical Co., St. Louis, Mo.) (1 mM) and Brij (dodexylpoly(oxyethyleneglycolether))(0,008% w/v). The reaction mixture wsa then incubated for 24 hours at 37° C.
The reaction mixture was applied to a NAP-5 column (G-25 SEPHADEX™, Pharmacia). Fractions containing 72KD gelatinase were identified using 12% polyacrylamide gel electrophoresis and concentrated to about 100-200 μliters by centrifigation (5000 g, 1 hour).
A solution containing H-150 buffer (2.0 mL), 92KD gelatinase (25 pM) and ethylphenolpoly(ethylene-glycolether)n (Boerhringer Mannheim) (4.0 μM) was prepared in a stirred cuvette. Coumarin peptide substrate (4 μL of a 5 mM solution in dimethyl sulfoxide) was added to the reaction mixture. The rate of hydrolysis was determined for about 100-200 seconds by measuring the fluorescence of the reaction at ex328 nanometers and […] using a Hitachi F-2000 Fluorescence Spectrophotometer.
as §1

The target of the next assay is T1, 72 kD gelatinase (Homo sapiens, UniProt P08253).
T1 sequence (P08253 110-660): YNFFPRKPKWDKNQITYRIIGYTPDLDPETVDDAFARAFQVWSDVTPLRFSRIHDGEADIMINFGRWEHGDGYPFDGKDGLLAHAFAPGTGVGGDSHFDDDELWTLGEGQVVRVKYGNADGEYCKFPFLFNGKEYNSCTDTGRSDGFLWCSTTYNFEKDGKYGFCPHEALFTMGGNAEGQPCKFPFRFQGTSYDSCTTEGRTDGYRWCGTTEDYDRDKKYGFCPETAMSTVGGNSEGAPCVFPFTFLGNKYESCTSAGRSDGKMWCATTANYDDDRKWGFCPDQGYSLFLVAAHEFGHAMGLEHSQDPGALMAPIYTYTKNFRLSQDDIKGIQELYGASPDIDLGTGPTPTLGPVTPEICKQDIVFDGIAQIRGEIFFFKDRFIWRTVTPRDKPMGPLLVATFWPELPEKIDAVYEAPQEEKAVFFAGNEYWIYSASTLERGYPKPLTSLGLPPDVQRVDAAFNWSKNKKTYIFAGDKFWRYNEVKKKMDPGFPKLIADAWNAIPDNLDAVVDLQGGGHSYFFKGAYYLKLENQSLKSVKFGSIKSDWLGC
As to the kind of experiment: Assay of 72 KD gelatinase inhibition activity. The following applies: 72KD gelatinase 180 pM, H-150 buffer pH 7.4; read-out: Ki(app). The procedure: H-150 buffer, pH 7.4, was prepared by CaCl2 H2O (1.47 grams), NaCl (8.77 grams) and N-[2 -hydroxyethyl]piperazine-N'-[2-ethanesulfonic acid](23.83 grams) to distilled and deionized water and then bring the final volume of the solution to 1 liter. An reaction mixture having a final volume of 250 μL was prepared with H-150 buffer, 40 μgrams of Pro-72KD gelatinase (Strongin, et al., J. Biol. Chem. 268:14033 (1993); Goldberg, et al., J. Biol. Chem., 267:4583 (1992); Kleiner, et al., Biochemistry 32:1583 (1993)) and p-aminophenyl mercuric acetate (Sigma Chemical Co., St. Louis, Mo.) (1 mM). The reaction mixture was then incubated for 3 hours at 25° C.
The reaction mixture was applied to a NAP-5 column (G-25 SEPHADEX™, Pharmacia). Fractions containing […] were identified using 12% SDS polyacrylamide gel electrphoresis and concentrated to about 100-200 μliters by centrifigation (5000 g, 15 minutes).
A solution containing H-150 buffer (2.0 mL), 72KD gelatinase (180 pM) and ethylphenolpoly(ethylene-glycolether)n (Boerhringer Mannheim) (1.3 μM) was prepared in a stirred cuvette. Coumarin peptide substrate (2 μL of a 1 mM solution in dimethyl sulfoxide) was added to the reaction mixture. The rate of hydrolysis was determined for about 100-200 seconds by measuring the fluorescence of the reaction at ex328 nanometers and […] using a Hitachi F-2000 Fluorescence Spectrophotometer.
as §1

Where a SMILES comes first, the peptide text is derived from it. [ ]: non-standard residue; d: D form. The star is where a group is joined. Phg = N[CH](C(=O)O)c1ccccc1; Cbz = O=C(OCc1ccccc1)*; X1 = S=c1[nH]nc(N*)s1; Bn = c1ccc(C*)cc1

Chain of 92 kD gelatinase (P14780 107-707): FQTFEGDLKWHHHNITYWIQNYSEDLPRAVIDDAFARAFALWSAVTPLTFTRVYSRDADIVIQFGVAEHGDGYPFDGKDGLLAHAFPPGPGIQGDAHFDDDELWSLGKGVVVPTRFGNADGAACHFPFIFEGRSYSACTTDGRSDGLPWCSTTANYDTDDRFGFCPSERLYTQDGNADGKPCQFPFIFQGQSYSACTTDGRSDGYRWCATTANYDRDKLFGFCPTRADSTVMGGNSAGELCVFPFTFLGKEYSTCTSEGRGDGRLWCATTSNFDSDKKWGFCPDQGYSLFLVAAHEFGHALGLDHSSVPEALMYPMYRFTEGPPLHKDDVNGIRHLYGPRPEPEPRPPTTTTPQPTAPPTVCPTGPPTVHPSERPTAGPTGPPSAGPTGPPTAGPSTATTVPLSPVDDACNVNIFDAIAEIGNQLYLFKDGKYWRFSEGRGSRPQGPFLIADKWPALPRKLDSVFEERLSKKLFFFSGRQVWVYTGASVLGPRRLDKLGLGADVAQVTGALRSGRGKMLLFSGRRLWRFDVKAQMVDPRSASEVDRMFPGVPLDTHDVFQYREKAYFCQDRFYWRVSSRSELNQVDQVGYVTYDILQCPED
Chain of stromelysin (P08254 100-477): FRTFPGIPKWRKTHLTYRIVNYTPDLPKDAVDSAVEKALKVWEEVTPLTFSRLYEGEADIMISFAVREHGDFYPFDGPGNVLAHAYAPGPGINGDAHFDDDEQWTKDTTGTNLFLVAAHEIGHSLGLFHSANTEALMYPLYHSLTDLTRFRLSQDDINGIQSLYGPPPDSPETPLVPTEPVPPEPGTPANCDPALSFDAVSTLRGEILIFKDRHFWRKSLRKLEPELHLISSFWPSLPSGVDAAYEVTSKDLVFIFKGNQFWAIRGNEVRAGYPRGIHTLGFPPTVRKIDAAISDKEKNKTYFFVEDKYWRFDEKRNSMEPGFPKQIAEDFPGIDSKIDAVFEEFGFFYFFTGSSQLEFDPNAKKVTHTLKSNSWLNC
Chain of human neutrophil collagenase (P22894 101-467): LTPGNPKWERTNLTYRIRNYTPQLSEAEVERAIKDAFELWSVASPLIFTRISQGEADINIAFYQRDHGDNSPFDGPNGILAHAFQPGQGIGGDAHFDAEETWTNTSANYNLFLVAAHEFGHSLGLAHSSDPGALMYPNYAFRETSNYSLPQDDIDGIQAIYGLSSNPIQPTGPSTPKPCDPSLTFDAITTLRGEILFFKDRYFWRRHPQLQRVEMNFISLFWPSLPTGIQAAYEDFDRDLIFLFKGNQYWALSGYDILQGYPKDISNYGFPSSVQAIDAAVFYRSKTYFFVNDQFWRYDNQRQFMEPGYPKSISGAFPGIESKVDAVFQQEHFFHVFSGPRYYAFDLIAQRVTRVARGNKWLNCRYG

Regarding `CC(C)[C@H](NC(=O)[C@H](Cc1ccccc1)NC(=O)c1ccc(Oc2ccccc2)cc1)C(=O)Nc1n[nH]c(=S)s1` [5-(N-(4-phenoxy)benzoyl-phenylalanyl-valylamino)-1,3,4-thiadiazole-2-thione], the Ki in assay [1] is 1.67 nM; on stromelysin, 101 nM.

In the case of `O=C(N[C@@H](Cc1ccc(OCc2ccccc2)cc1)C(=O)N[C@@H](Cc1ccccc1)C(=O)Nc1n[nH]c(=S)s1)OCc1ccccc1`, the Ki at 92 kD gelatinase was determined as 0.15 nM.

For `CSCC[C@H](NC(=O)[C@H](Cc1ccccc1)NC(=O)OCc1ccccc1)C(=O)N[C@@H](Cc1ccc(OCc2ccccc2)cc1)C(=O)N[C@H](C(=O)Nc1n[nH]c(=S)s1)c1ccccc1`, the Ki on 72 kD gelatinase is 0.2 nM.

Regarding `O=C(N[C@@H](Cc1c[nH]c2ccccc12)C(=O)Nc1n[nH]c(=S)s1)OCC1c2ccccc2-c2ccccc21` [5-(N-(9-fluorenylmethoxycarbonyl)tryptonylamino)-1,3,4-thiadiazole-2-thione], the Ki at stromelysin turned out to be 341 nM.

With `CC(C)C[C@H](NC(=O)OC(C)(C)C)C(=O)Nc1n[nH]c(=S)s1` [5-(N-t-butoxycarbonyl-leucylamino)-1,3,4-thiadiazole-2-thione], on stromelysin, the Ki stood at 10200 nM.

Consider `CSCC[C@H](NC(=O)OCC1c2ccccc2-c2ccccc21)C(=O)Nc1n[nH]c(=S)s1` [5-(N-9-fluorenylmethoxycarbonyl)methionylamino)-1,3,4-thiadiazole-2-thione], for which the Ki at stromelysin worked out at 195 nM.

As to `O=C(N[C@@H](Cc1c[nH]c2ccccc12)C(=O)Nc1n[nH]c(=S)s1)OCc1ccccc1` [5-(N-benzyloxycarbonyl-tryptonylamino)-1,3,4-thiadiazole-2-thione], the Ki at stromelysin was 3370 nM.

As to `CC(C)[C@H](NC(=O)[C@H](Cc1ccccc1F)NC(=O)OCc1ccccc1)C(=O)Nc1n[nH]c(=S)s1` [5-(N-Benzyloxycarbonyl-(2-flouro)phenyl-valylamino)-1,3,4-thiadiazole-2-thione], the Ki at stromelysin is 633 nM.

Consider `CC(C)[C@H](NC(=O)[C@@H](NC(=O)OCc1ccccc1)C1CCCCC1)C(=O)Nc1n[nH]c(=S)s1`, for which the Ki at stromelysin was 180 nM.

As for `O=C(N[C@@H](Cc1ccccc1)C(=O)Nc1n[nH]c(=S)s1)OCC1c2ccccc2-c2ccccc21` [5-(N-(9-fluorenylmethoxycarbonyl)-phenylalanylamino)-1,3,4-thiadiazole-2-thione], the Ki on 92 kD gelatinase came out at 0.23 nM.

As to `O=C(N[C@@H](Cc1ccccc1)C(=O)Nc1n[nH]c(=S)s1)OCc1ccccc1` [5-(N-benzyloxycarbonyl-phenylalanylamino)-1,3,4-thiadiazole-2-thione], at stromelysin, the Ki was 2360 nM.

In the case of `O=C(N[C@H](C(=O)Nc1n[nH]c(=S)s1)c1ccccc1)[C@H](Cc1ccc(OCc2ccccc2)cc1)NC(=O)[C@@H]1CCCN1C(=O)OCc1ccccc1`, the Ki at 92 kD gelatinase turned out to be 0.76 nM.

Turning to `O=C(CNC(=O)[C@H](Cc1ccc(OCc2ccccc2)cc1)NC(=O)OCc1ccccc1)Nc1n[nH]c(=S)s1` [5-(N-benzyloxycarbonyl-(O-Benzyl)tyrosyl-glycylamino)-1,3,4-thiadiazole-2-thione], the Ki at 72 kD gelatinase amounted to 0.38 nM.

Consider `O=C(CNC(=O)[C@H](Cc1ccccc1)NC(=O)OCc1ccccc1)Nc1n[nH]c(=S)s1` [5-(N-benzyloxycarbonyl-phenylalanyl-glycylamino)-1,3,4-thiadiazole-2-thione], for which the Ki at stromelysin turned out to be 3950 nM.

With `CC(C)[C@H](NC(=O)[C@H](Cc1ccc(F)cc1)NC(=O)OCc1ccccc1)C(=O)Nc1n[nH]c(=S)s1` [5-(N-benzyloxycarbonyl(para-F)phenylalanyl-valylamino)-1,3,4-thiadiazole-2-thione], the Ki at stromelysin amounted to 156 nM.

In the case of `O=C(CNC(=O)OCc1ccccc1)NC(Cc1ccc(O)cc1)C(=O)NC(Cc1ccc(OCc2ccccc2)cc1)C(=O)NC(C(=O)Nc1n[nH]c(=S)s1)c1ccccc1` (stereo not shown) [5-(N-benzyloxycarbonyl-glycyl-tyrosyl-(O-benzyl)tyrosyl)-phenylglycylamino)-1,3,4-thiadiazole-2-thione] (Cbz-GYY(Bn)[Phg]-X1; configuration not given here), the Ki on 72 kD gelatinase stood at 0.073 nM; on stromelysin, 110 nM.

On to `CC(C)C[C@H](NC(=O)OCc1ccccc1)C(=O)N[C@@H](Cc1ccc(O)cc1)C(=O)Nc1n[nH]c(=S)s1` [5-(N-benzyloxycarbonyl-leucyl-tyrosylamino-1,3,4-thiadiazole-2-thione], for which the Ki at stromelysin was found to be 1300 nM.

In the case of `CC(C)[C@H](NC(=O)[C@H](Cc1c[nH]c2ccccc12)NC(=O)OCc1ccccc1)C(=O)Nc1n[nH]c(=S)s1` [5-(N-benzyloxycarbonyl-tryptoyl-valylamino)-1,3,4-thiadiazole-2-thione], the Ki on stromelysin was found to be 741 nM.

In the case of `C[C@H](NC(=O)[C@H](Cc1ccccc1)NC(=O)OCc1ccccc1)C(=O)Nc1n[nH]c(=S)s1` [5-(N-benzyloxycarbonyl-phenylalanyl-alanylamino)-1,3,4-thiadiazole-2-thione], the Ki on stromelysin was determined as 1400 nM; at 92 kD gelatinase it was 3.6 nM.

Values taken from patent US5677282A (Proscript, Inc., priority 1995, dated 1997).
